Source: patent US20210188843A1, “QUINOLINE COMPOUNDS AND THEIR PREPARATION AND USE AS ANTIMALARIAL AGENTS” (The United States of America,as represented by the …, priority 2018, published 2021)
In brackets after ≈: the same amount, converted by molar mass.

How the values were obtained:
[1] = Solubility pH 7.4; format: physicochemical; conditions: aqueous buffer, Table 1
[2] = Microsomal stability (rat); format: in vitro ADME; conditions: rat microsomes, Table 1, read-out: Microsomal Stability (rat) T1/2
[3] = system: Asexual parasites of P. falciparum strain 3D7; test: In vitro drug activity on asexual parasites (SYBR Green assay); format: cell-based; conditions: Plasmodium falciparum; Table 1; P. falciparum 3D7 asexual stage, 72 h; read-out: Asexual EC50
Experimental: Cell culture. Asexual parasites of P. falciparum strain 3D7 were cultured as described previously [Trager W, et al., Journal of Parasitology 2005, 91: 484-486]. Stage III-V gametocytes were selected and enriched with 3-day treatment with 50 mM N-acetylglucosamine (NAG) and the following Percoll density gradient centrifugation after gametocyte production [Tanaka T Q, et al., Molecular and Biochemical Parasitology, 2011, 177: 160-163]. Gametocytes of HB3 and Dd2 strains were produced and then set up for assay in a similar process. HepG2 cells (ATCC, cat. no. 77400) were cultured in 175-cm^2 tissue culture flasks with 30 ml growth medium at 37° C. in a 5% CO2 humidified atmosphere. Growth medium was made with Dulbecco's Modified Eagle Medium with 10% fetal bovine serum (FBS). Growth medium was replaced every other day and cells were passed at 75% confluence.
Asexual parasites of P. falciparum strain 3D7 were cultured as described previously (Trager, W. et al., J. Parasitol. 2005, 91(3): 484-486). Drug activity on asexual stage parasites was tested using a SYBR Green assay as described previously (Eastman, R. T. et al., Antimicrob. Agents Chemother. 2013, 57(1): 425-435; Smilkstein, M. et al., Antimicrob. Agents Chemother. 2004, 48(5): 1803-1806). Briefly, parasites were diluted to 0.5% parasitemia in complete culture medium with 2% hematocrit and drugs diluted in DMSO (<0.5%) and were loaded into a 96-well plate (200 μl/well). No drug and RBC alone wells were included as positive and background controls, respectively, and each testing condition was examined in duplicated. After 72 h incubation under the standard culture condition and a freeze-thaw lysis step at −80° C. and room temperature, 100 μl/well of lysis buffer containing SYBR Green I was added to the parasite culture and incubated for 30 min at room temperature. The fluorescence of each well was measured at 520 nm following excitation at 490 nm using a FLUOstar Optima™ microplate reader (BMG Labtech).
Compounds were screened against gametocytes and asexual parasites as described in Examples 1 and 2.

SMILES	solubility [1]	half-life [2]	EC50 [3]
Cn1c(=N)n(-c2ccccc2)c2c3cc(-c4ccc(Cl)cc4)ccc3ncc21 [Compound 63, 8-(4-chlorophenyl)-3-methyl-1-phenyl-1,3-dihydro-2H-imidazo[4,5-c]quinolin-2-imine]	5.7 µg/mL (≈ 14.8 µM)	> 30 min	1040 nM
COc1cccc(-n2c(=N)n(C)c3cnc4ccc(-c5ccc(Cl)cc5)cc4c32)c1 [Compound 64, 8-(4-chlorophenyl)-1-(3-methoxyphenyl)-3-methyl-1,3-dihydro-2H-imidazo[4,5-c]quinolin-2-imine]	20.8 µg/mL (≈ 50.1 µM)	> 30 min	1300 nM
Cc1cccc(-n2c(=N)n(C)c3cnc4ccc(-c5ccc(Cl)cc5)cc4c32)c1 [Compound 66, 8-(4-chlorophenyl)-3-methyl-1-(m-tolyl)-1,3-dihydro-2H-imidazo[4,5-c]quinolin-2-imine]	4 µg/mL (≈ 10 µM)	> 30 min	382 nM
Cc1c(C#N)cccc1-n1c(=N)n(C)c2cnc3ccc(-c4ccc(Cl)cc4)cc3c21 [Compound 69, 3-(8-(4-chlorophenyl)-2-imino-3-methyl-2,3-dihydro-1H-imidazo[4,5-c]quinolin-1-yl)-2-methylbenzonitrile]	< 1 µg/mL	> 30 min	207 nM
Cc1ccc(-n2c(=N)n(C)c3cnc4ccc(-c5ccc(Cl)cc5)cc4c32)cc1C#N [Compound 70, 5-(8-(4-chlorophenyl)-2-imino-3-methyl-2,3-dihydro-1H-imidazo[4,5-c]quinolin-1-yl)-2-methylbenzonitrile]	< 1 µg/mL	> 30 min	443 nM
Cc1cc(C#N)cc(-n2c(=N)n(C)c3cnc4ccc(-c5ccc(Cl)cc5)cc4c32)c1 [Compound 71, 3-(8-(4-chlorophenyl)-2-imino-3-methyl-2,3-dihydro-1H-imidazo[4,5-c]quinolin-1-yl)-5-methylbenzonitrile]	< 1 µg/mL	> 30 min	511 nM
Cn1c(=N)n(-c2ccc(N3CCNCC3)c(C(F)(F)F)c2)c2c3cc(-c4ccc(Cl)cc4)ccc3ncc21 [Compound 72, 8-(4-chlorophenyl)-3-methyl-1-(4-(piperazin-1-yl)-3-(trifluoromethyl)phenyl)-1,3-dihydro-2H-imidazo[4,5-c]quinolin-2-imine]	< 1 µg/mL	> 30 min	258 nM
CC(=O)c1cccc(-n2c(=N)n(C)c3cnc4ccc(-c5ccc(Cl)cc5)cc4c32)c1 [Compound 74, 1-(3-(8-(4-chlorophenyl)-2-imino-3-methyl-2,3-dihydro-1H-imidazo[4,5-c]quinolin-1-yl)phenyl)ethan-1-one]	> 42 µg/mL	> 30 min	445 nM
Cn1c(=N)n(-c2cccc(S(C)(=O)=O)c2)c2c3cc(-c4ccc(Cl)cc4)ccc3ncc21 [Compound 75, 8-(4-chlorophenyl)-3-methyl-1-(3-(methylsulfonyl)phenyl)-1,3-dihydro-2H-imidazo[4,5-c]quinolin-2-imine]	11.7 µg/mL (≈ 25.3 µM)	> 30 min	1020 nM
Cn1c(=N)n(-c2cccc(S(N)(=O)=O)c2)c2c3cc(-c4ccc(Cl)cc4)ccc3ncc21 [Compound 77, 3-(8-(4-chlorophenyl)-2-imino-3-methyl-2,3-dihydro-1H-imidazo[4,5-c]quinolin-1-yl)benzenesulfonamide]	6.2 µg/mL (≈ 13.4 µM)	> 30 min	1400 nM
Cn1c(=N)n(-c2ccccc2F)c2c3cc(-c4ccc(Cl)cc4)ccc3ncc21 [Compound 80, 8-(4-chlorophenyl)-1-(2-fluorophenyl)-3-methyl-1,3-dihydro-2H-imidazo[4,5-c]quinolin-2-imine]	12.4 µg/mL (≈ 30.8 µM)	> 30 min	955 nM
Cc1ccccc1-n1c(=N)n(C)c2cnc3ccc(-c4ccc(Cl)cc4)cc3c21 [Compound 81, 8-(4-chlorophenyl)-3-methyl-1-(o-tolyl)-1,3-dihydro-2H-imidazo[4,5-c]quinolin-2-imine]	> 39 µg/mL	> 30 min	1640 nM
COc1ccccc1-n1c(=N)n(C)c2cnc3ccc(-c4ccc(Cl)cc4)cc3c21 [Compound 82, 8-(4-chlorophenyl)-1-(2-methoxyphenyl)-3-methyl-1,3-dihydro-2H-imidazo[4,5-c]quinolin-2-imine]	> 41 µg/mL	> 30 min	1670 nM
COc1ccc(-n2c(=N)n(C)c3cnc4ccc(-c5ccc(Cl)cc5)cc4c32)cc1C#N [Compound 84, 5-(8-(4-chlorophenyl)-2-imino-3-methyl-2,3-dihydro-1H-imidazo[4,5-c]quinolin-1-yl)-2-methoxybenzonitrile]	< 1 µg/mL	> 30 min	658 nM
CCCCOC(=O)/N=c1\n(C)c2cnc3ccc(-c4ccc(Cl)cc4)cc3c2n1-c1cc(C#N)ccc1C [Compound 89, butyl (E)-(8-(4-chlorophenyl)-1-(5-cyano-2-methylphenyl)-3-methyl-1,3-dihydro-2H-imidazo[4,5-c]quinolin-2-ylidene)carbamate]	< 1 µg/mL	6.2 min	601 nM
CCn1c(=N)n(-c2cc(C#N)ccc2C)c2c3cc(-c4ccc(Cl)cc4)ccc3ncc21 [Compound 93, 3-(8-(4-chlorophenyl)-3-ethyl-2-imino-2,3-dihydro-1H-imidazo[4,5-c]quinolin-1-yl)-4-methylbenzonitrile]	13.6 µg/mL (≈ 31.1 µM)	> 30 min	813 nM
Cc1ccc(C#N)cc1-n1c(=N)n(Cc2ccccc2)c2cnc3ccc(-c4ccc(Cl)cc4)cc3c21 [Compound 94, 3-(3-benzyl-8-(4-chlorophenyl)-2-imino-2,3-dihydro-1H-imidazo[4,5-c]quinolin-1-yl)-4-methylbenzonitrile]	< 1 µg/mL	> 30 min	9170 nM
Cc1ccc(C#N)cc1-n1c(=N)n(CCO)c2cnc3ccc(-c4ccc(Cl)cc4)cc3c21 [Compound 95, 3-(8-(4-chlorophenyl)-3-(2-hydroxyethyl)-2-imino-2,3-dihydro-1H-imidazo[4,5-c]quinolin-1-yl)-4-methylbenzonitrile]	27.4 µg/mL (≈ 60.4 µM)	> 30 min	2580 nM
Cn1c(=N)n([C@H]2CC[C@H](N3CCNCC3)CC2)c2c3cc(-c4ccc(Cl)cc4)ccc3ncc21 [Compound 96, 8-(4-chlorophenyl)-3-methyl-1-((1r,4r)-4-(piperazin-1-yl)cyclohexyl)-1,3-dihydro-2H-imidazo[4,5-c]quinolin-2-imine]	> 47 µg/mL	> 30 min	2630 nM
Cn1c(=N)n(C2CCN(C3CCNCC3)CC2)c2c3cc(-c4ccc(Cl)cc4)ccc3ncc21 [Compound 97, 1-([1,4′-bipiperidin]-4-yl)-8-(4-chlorophenyl)-3-methyl-1,3-dihydro-2H-imidazo[4,5-c]quinolin-2-imine]	> 47 µg/mL	> 30 min	5100 nM
Cn1c(=N)n(C2CC(N3CCNCC3)C2)c2c3cc(-c4ccc(Cl)cc4)ccc3ncc21 (stereo not drawn) [Compound 98, 8-(4-chlorophenyl)-3-methyl-1-(3-(piperazin-1-yl)cyclobutyl)-1,3-dihydro-2H-imidazo[4,5-c]quinolin-2-imine]	> 44 µg/mL	> 30 min	2550 nM
